Test results from patent US4508663A, “Process for preparing thiosulfenamide derivatives of N-phosphonomethylglycinonitriles” (Monsanto Company, priority 1983, dated 1985).

What was measured:
Assay in all cases: post-emergence herbicidal activity, greenhouse
Assay type in all cases: in vivo
Barnyardgrass = test system: Barnyardgrass
From the text: (§1) A good grade of top soil is placed in aluminum pans having holes in the bottom and compacted to a depth of 0.95 to 1.27 cm. from the top of the pan. A predetermined number of seeds of each of several dicotyledonous and monocotyledonous annual plant species and/or vegetative propagules for the perennial plant species are placed on the soil and pressed into the soil surface. The seeds and/or vegetative propagules are covered with soil and leveled. The pans are then placed on a sand bench in the greenhouse and watered from below as needed. After the plants reach the desired age (two to three weeks), each pan except for the control pans is removed individually to a spraying chamber and sprayed by means of an atomizer operating at a positive air pressure of approximately 1.46 kg/cm^2 absolute. The atomizer contains 6 ml. of a solution or suspension of the chemical. In that 6 ml., is an amount of a cyclohexanone emulsifying agent mixture to give a spray solution or suspension which contains about 0.4% by weight of the emulsifier. The spray solution or suspension contains a sufficient amount of the candidate chemical in order to give application rates corresponding to those set forth in the tables. The spray solution is prepared by taking an aliquot of a 1.0% by weight stock solution or suspension of the candidate chemical in an organic solvent such as acetone or tetrahydrofuran or in water. The emulsifying agent employed is a mixture comprising 35 weight percent butylamine dodecylbenzene sulfonate and 65 weight percent of a tall oil ethylene oxide condensate having about 11 moles of ethylene oxide per mole of tall oil. The pans are returned to the greenhouse and watered as before and the injury to the plants as compared to the control is observed at approximately two and four weeks as indicated in the tables under WAT and the results recorded. In some instances, the two-week observations are omitted.
(§2) The post-emergence herbicidal activity index used in Table I is as follows: […]

Canada Thistle = conditions: Table I
From the text: as §1, §2

Cocklebur = test system: Cocklebur
From the text: as §1, §2

Downy Brome = test system: Downy Brome
From the text: as §1, §2

Johnsongrass = conditions: Table I
From the text: as §1, §2

Lambsquarters = test system: Lambsquarters
From the text: as §1, §2

Morningglory = test system: Morningglory
From the text: as §1, §2

Quackgrass = conditions: Table I
From the text: as §1, §2

Smartweed = test system: Smartweed
From the text: as §1, §2

Velvetleaf = test system: Velvetleaf
From the text: as §1, §2

Yellow Nutsedge = conditions: Table I
From the text: as §1, §2

Crabgrass = conditions: Table II, 4 WAT
From the text: as §1, §2

Hemp Sesbania = conditions: Table II, 4 WAT
From the text: as §1, §2

Panicum Spp = conditions: Table II, 4 WAT
From the text: as §1, §2

Rice = conditions: Table II, 4 WAT
From the text: as §1, §2

Sorghum = conditions: Table II, 4 WAT
From the text: as §1, §2

Soybean = conditions: Table II, 4 WAT
From the text: as §1, §2

Sugar Beet = conditions: Table II, 4 WAT
From the text: as §1, §2

Wheat = conditions: Table II, 4 WAT
From the text: as §1, §2

Wild Buckwheat = conditions: Table II, 4 WAT
From the text: as §1, §2

Measured: post-emergence herbicidal activity index

COc1ccc(SSN(CC#N)CP(=O)(Oc2ccccc2)Oc2ccccc2)cc1 [III, Phosphonic acid, [[(cyanomethyl)[(4-methoxyphenyl)-dithio]amino]methyl]-, diphenyl ester]
1 (25-49% control): Cocklebur; Table I, 4 WAT, 5.6 kg/h | Morningglory; Table I, 4 WAT, 5.6 kg/h | Quackgrass; 4 WAT, 11.2 kg/h | Velvetleaf; Table I, 4 WAT, 5.6 kg/h | Velvetleaf; Table I, 4 WAT, 11.2 kg/h | Yellow Nutsedge; 4 WAT, 5.6 kg/h
0 (0-24% control): Downy Brome; Table I, 4 WAT, 5.6 kg/h | Quackgrass; 4 WAT, 5.6 kg/h | Smartweed; Table I, 4 WAT, 11.2 kg/h
3 (75-99% control): Lambsquarters; Table I, 4 WAT, 5.6 kg/h
2 (50-74% control): Barnyardgrass; Table I, 4 WAT, 5.6 kg/h | Barnyardgrass; Table I, 4 WAT, 11.2 kg/h | Canada Thistle; 4 WAT, 5.6 kg/h | Canada Thistle; 4 WAT, 11.2 kg/h | Cocklebur; Table I, 4 WAT, 11.2 kg/h | Downy Brome; Table I, 4 WAT, 11.2 kg/h | Johnsongrass; 4 WAT, 5.6 kg/h | Johnsongrass; 4 WAT, 11.2 kg/h | Morningglory; Table I, 4 WAT, 11.2 kg/h | Yellow Nutsedge; 4 WAT, 11.2 kg/h
4 (100% control): Lambsquarters; Table I, 4 WAT, 11.2 kg/h

N#CCN(CP(=O)(Oc1ccccc1)Oc1ccccc1)SSc1cccc(C(F)(F)F)c1 [IV, Phosphonic acid, [[(cyanomethyl)[[3-(trifluoromethyl)phenyl]dithio]amino]methyl]-, diphenyl ester]
4 (100% control): Lambsquarters; Table I, 4 WAT, 11.2 kg/h | Lambsquarters; Table II, 4 WAT, 5.6 kg/h | Smartweed; Table I, 4 WAT, 11.2 kg/h
1 (25-49% control): Canada Thistle; 2 WAT, 5.6 kg/h | Canada Thistle; 2 WAT, 11.2 kg/h | Canada Thistle; 4 WAT, 11.2 kg/h | Cocklebur; Table I, 2 WAT, 5.6 kg/h | Cocklebur; Table II, 4 WAT, 1.12 kg/h | Downy Brome; Table I, 2 WAT, 5.6 kg/h | Downy Brome; Table I, 4 WAT, 5.6 kg/h | Downy Brome; Table II, 4 WAT, 5.6 kg/h | Hemp Sesbania; 5.6 kg/h | Johnsongrass; 2 WAT, 11.2 kg/h | Johnsongrass; 4 WAT, 11.2 kg/h | Morningglory; Table I, 2 WAT, 5.6 kg/h | Morningglory; Table I, 2 WAT, 11.2 kg/h | Morningglory; Table II, 4 WAT, 1.12 kg/h | Quackgrass; 2 WAT, 5.6 kg/h | Smartweed; Table I, 2 WAT, 11.2 kg/h | Smartweed; Table II, 4 WAT, 1.12 kg/h | Soybean; 1.12 kg/h | Soybean; 5.6 kg/h | Velvetleaf; Table I, 4 WAT, 5.6 kg/h | Velvetleaf; Table I, 4 WAT, 11.2 kg/h | Velvetleaf; Table II, 4 WAT, 5.6 kg/h | Wheat; 5.6 kg/h | Yellow Nutsedge; 2 WAT, 5.6 kg/h | Yellow Nutsedge; 2 WAT, 11.2 kg/h
3 (75-99% control): Barnyardgrass; Table II, 4 WAT, 5.6 kg/h | Cocklebur; Table II, 4 WAT, 5.6 kg/h | Crabgrass; 1.12 kg/h | Crabgrass; 5.6 kg/h | Johnsongrass; 4 WAT, 5.6 kg/h | Lambsquarters; Table I, 2 WAT, 5.6 kg/h | Lambsquarters; Table I, 2 WAT, 11.2 kg/h | Lambsquarters; Table I, 4 WAT, 5.6 kg/h | Morningglory; Table I, 4 WAT, 5.6 kg/h | Sorghum; 5.6 kg/h
2 (50-74% control): Barnyardgrass; Table I, 2 WAT, 5.6 kg/h | Barnyardgrass; Table I, 2 WAT, 11.2 kg/h | Barnyardgrass; Table I, 4 WAT, 5.6 kg/h | Barnyardgrass; Table I, 4 WAT, 11.2 kg/h | Canada Thistle; 4 WAT, 5.6 kg/h | Cocklebur; Table I, 2 WAT, 11.2 kg/h | Cocklebur; Table I, 4 WAT, 5.6 kg/h | Cocklebur; Table I, 4 WAT, 11.2 kg/h | Downy Brome; Table I, 4 WAT, 11.2 kg/h | Johnsongrass; 2 WAT, 5.6 kg/h | Lambsquarters; Table II, 4 WAT, 1.12 kg/h | Morningglory; Table I, 4 WAT, 11.2 kg/h | Morningglory; Table II, 4 WAT, 5.6 kg/h | Panicum Spp; 5.6 kg/h | Quackgrass; 4 WAT, 5.6 kg/h | Rice; 5.6 kg/h | Smartweed; Table II, 4 WAT, 5.6 kg/h | Sorghum; 1.12 kg/h | Wild Buckwheat; 5.6 kg/h | Yellow Nutsedge; 4 WAT, 5.6 kg/h | Yellow Nutsedge; 4 WAT, 11.2 kg/h
0 (0-24% control): Barnyardgrass; Table II, 4 WAT, 1.12 kg/h | Downy Brome; Table I, 2 WAT, 11.2 kg/h | Downy Brome; Table II, 4 WAT, 1.12 kg/h | Hemp Sesbania; 1.12 kg/h | Panicum Spp; 1.12 kg/h | Quackgrass; 2 WAT, 11.2 kg/h | Quackgrass; 4 WAT, 11.2 kg/h | Rice; 1.12 kg/h | Smartweed; Table I, 2 WAT, 5.6 kg/h | Smartweed; Table I, 4 WAT, 5.6 kg/h | Sugar Beet; 1.12 kg/h | Sugar Beet; 5.6 kg/h | Velvetleaf; Table I, 2 WAT, 5.6 kg/h | Velvetleaf; Table I, 2 WAT, 11.2 kg/h | Velvetleaf; Table II, 4 WAT, 1.12 kg/h | Wheat; 1.12 kg/h | Wild Buckwheat; 1.12 kg/h
